Measurements published in patent EP2931723B1, “NEW BICYCLIC COMPOUNDS AND THEIR USE AS ANTIBACTERIAL AGENTS AND -LACTAMASE INHIBITORS” (Fedora Pharmaceuticals Inc., priority 2012, dated 2014).

Assays:
Assay in all cases: MIC, antibacterial and synergistic activity
Format in all cases: cell-based
K. pneumo JMI 2697 = K. pneumo JMI 2697 (IMP-4 (Cpase))
Procedure: (§1) In the Tables 10 - 12, compounds herein disclosed were tested in combination with various antibiotics against metallo β-lactamase producing bacteria.

E. coli JMI 2692 = E. coli JMI 2692 (NDM-1, TEM-1, CTX-M-15)
Procedure: as §1

K. pneumo JMI 2693 = K. pneumo JMI 2693 (NDM-1 (Cpase))
Procedure: as §1

A. baumanii JMI 2659 = A. baumanii JMI 2659 (Ges-14 (Cpase))
E. coli JMI 10767 [1] = settings: E. coli JMI 10767 (Wt)
K. pneumo JMI 4088 [2] = settings: K. pneumo JMI 4088 (KPC-3 (Cpase)); substance alone
E. coli JMI 2671 = test system: E. coli JMI 2671
Procedure: (§2) In the Tables 10 - 12, compounds herein disclosed were tested in combination with various antibiotics against metallo β-lactamase producing bacteria. Table 3: Synergy of the inhibitor Ex. 1 (4 µg/mL) in combination with antibiotics

E. coli JMI 10770 = E. coli JMI 10770 (CTX-M15 (Hyper ESBL))
Procedure: as §2

K. pneumo JMI 2673 [3] = settings: K. pneumo JMI 2673 (CTX-M14 (ESBL))
Procedure: as §2

E. coli JMI 2665 = test system: E. coli JMI 2665
Procedure: as §2

E. coli JMI 10767 [4] = settings: E. coli JMI 10767 (Wt); remark: listed apart in the source
Procedure: as §2

K. pneumo JMI 2674 = K. pneumo JMI 2674 (CTX-M15 (ESBL))
Procedure: as §2

K. pneumo JMI 2699 = K. pneumo JMI 2699 (VIM-1, CTX-M3)
Procedure: as §2

K. pneumo JMI 4088 [5] = settings: K. pneumo JMI 4088 (KPC-3 (Cpase))
Procedure: as §2

E. coli JMI 10768 = E. coli JMI 10768 (CTX-M15 (Weak ESBL))
Procedure: as §2

K.pneumo JMI 4109 [6] = settings: K.pneumo JMI 4109 (SHV-1, SHV-12)
Procedure: as §2

P. aerug JMI 2686 = P. aerug JMI 2686 (KPC-2 (Cpase))
Procedure: as §2

P. aerug JMI 149 = P. aerug JMI 149 (Bla+++D+)
K. pneumo JMI 2673 [7] = settings: K. pneumo JMI 2673 (CTX-M14 (ESBL)); substance alone
K.pneumo JMI 4109 [8] = settings: K.pneumo JMI 4109 (SHV-1, SHV-12); substance alone
E. coli JMI 4080 = test system: E. coli JMI 4080
E.coli JMI 4103 = E.coli JMI 4103 (KPC-2, Tem-1, CMY-Type)
[9] = Aztreonam + inhibitor at 4 µg/mL
[10] = Ceftazidime + inhibitor at 4 µg/mL
[11] = Meropenem + inhibitor at 4 µg/mL

## O=C(NNC(=O)[C@H]1CC[C@H]2CN1C(=O)N2OS(=O)(=O)O)C1CNC1 (stereo in doubt) [Ex. 9, (2R,5S)-N'-(azetidin-3-ylcarbonyl)-7-oxo-6-(sulfooxy)-1,6-diazabicyclo[3.2.1]octane-2-carbohydrazide]
K. pneumo JMI 2697; [9]
  MIC Aztreonam + inhibitor: ≤0.06 µg/mL
K. pneumo JMI 2697; [10]
  MIC Ceftazidime + inhibitor: 8 µg/mL
K. pneumo JMI 2697; [11]
  MIC Meropenem + inhibitor: 2 µg/mL
K. pneumo JMI 2697; substance alone
  MIC: 16 µg/mL
E. coli JMI 2692; [9]
  MIC Aztreonam + inhibitor: 1 µg/mL
E. coli JMI 2692; [10]
  MIC Ceftazidime + inhibitor: >16 µg/mL
E. coli JMI 2692; [11]
  MIC Meropenem + inhibitor: 0.125 µg/mL
E. coli JMI 2692; Escherichia coli, JMI2692, substance alone, read-out: MIC
  MIC: 8 µg/mL
K. pneumo JMI 2693; [9]
  MIC Aztreonam + inhibitor: 0.25 µg/mL
K. pneumo JMI 2693; [10]
  MIC Ceftazidime + inhibitor: ≤0.25 µg/mL
K. pneumo JMI 2693; [11]
  MIC Meropenem + inhibitor: 0.125 µg/mL
K. pneumo JMI 2693; substance alone
  MIC: > 16 µg/mL
A. baumanii JMI 2659; [9]
  MIC Aztreonam + inhibitor: >4 µg/mL
A. baumanii JMI 2659; [10]
  MIC Ceftazidime + inhibitor: 16 µg/mL
A. baumanii JMI 2659; [11]
  MIC Meropenem + inhibitor: 2 µg/mL
A. baumanii JMI 2659; Acinetobacter baumannii, JMI2659, substance alone, read-out: MIC
  MIC: > 16 µg/mL
E. coli JMI 10767 [1]; [11]
  MIC Meropenem + inhibitor: ≤0.03 µg/mL
E. coli JMI 10767 [1]; Escherichia coli, JMI10767, substance alone
  MIC: > 16 µg/mL
K. pneumo JMI 4088 [2]
  MIC: 16 µg/mL
E. coli JMI 2671; E. coli JMI 2671 (VIM-19 (Cpase)), Aztreonam + inhibitor at 4 µg/mL
  MIC Aztreonam + inhibitor: ≤0.06 µg/mL
E. coli JMI 2671; E. coli JMI 2671 (VIM-19 (Cpase)), Ceftazidime + inhibitor at 4 µg/mL
  MIC Ceftazidime + inhibitor: 1 µg/mL
E. coli JMI 2671; E. coli JMI 2671 (VIM-19 (Cpase)), Meropenem + inhibitor at 4 µg/mL
  MIC Meropenem + inhibitor: 0.125 µg/mL
E. coli JMI 2671; Escherichia coli, JMI2671, E. coli JMI 2671 (VIM-19 (Cpase)), substance alone
  MIC: > 16 µg/mL
E. coli JMI 10770; [9]
  MIC Aztreonam + inhibitor: ≤0.06 µg/mL
E. coli JMI 10770; [10]
  MIC Ceftazidime + inhibitor: ≤0.25 µg/mL
E. coli JMI 10770; [11]
  MIC Meropenem + inhibitor: ≤0.03 µg/mL
K. pneumo JMI 2673 [3]; [9]
  MIC Aztreonam + inhibitor: ≤0.06 µg/mL
K. pneumo JMI 2673 [3]; [10]
  MIC Ceftazidime + inhibitor: ≤0.25 µg/mL
K. pneumo JMI 2673 [3]; [11]
  MIC Meropenem + inhibitor: ≤0.03 µg/mL
E. coli JMI 2665; E. coli JMI 2665 (CMY-2 (Plasmid Cpase)), Aztreonam + inhibitor at 4 µg/mL
  MIC Aztreonam + inhibitor: ≤0.06 µg/mL
E. coli JMI 2665; E. coli JMI 2665 (CMY-2 (Plasmid Cpase)), Ceftazidime + inhibitor at 4 µg/mL
  MIC Ceftazidime + inhibitor: ≤0.25 µg/mL
E. coli JMI 2665; E. coli JMI 2665 (CMY-2 (Plasmid Cpase)), Meropenem + inhibitor at 4 µg/mL
  MIC Meropenem + inhibitor: ≤0.03 µg/mL
E. coli JMI 2665; Escherichia coli, JMI2665
  MIC: 8 µg/mL
E. coli JMI 10767 [4]; [9]
  MIC Aztreonam + inhibitor: ≤0.06 µg/mL
E. coli JMI 10767 [4]; [10]
  MIC Ceftazidime + inhibitor: ≤0.25 µg/mL
K. pneumo JMI 2674; [9]
  MIC Aztreonam + inhibitor: 0.125 µg/mL
K. pneumo JMI 2674; [10]
  MIC Ceftazidime + inhibitor: ≤0.25 µg/mL
K. pneumo JMI 2674; [11]
  MIC Meropenem + inhibitor: 0.06 µg/mL
K. pneumo JMI 2699; [9]
  MIC Aztreonam + inhibitor: 0.06 µg/mL
K. pneumo JMI 2699; [10]
  MIC Ceftazidime + inhibitor: ≤0.25 µg/mL
K. pneumo JMI 2699; [11]
  MIC Meropenem + inhibitor: 0.5 µg/mL
K. pneumo JMI 2699; substance alone, read-out: MIC
  MIC: > 16 µg/mL
K. pneumo JMI 4088 [5]; [9]
  MIC Aztreonam + inhibitor: 0.5 µg/mL
K. pneumo JMI 4088 [5]; [10]
  MIC Ceftazidime + inhibitor: ≤0.25 µg/mL
K. pneumo JMI 4088 [5]; [11]
  MIC Meropenem + inhibitor: 0.06 µg/mL
E. coli JMI 10768; [9]
  MIC Aztreonam + inhibitor: ≤0.06 µg/mL
E. coli JMI 10768; [10]
  MIC Ceftazidime + inhibitor: ≤0.25 µg/mL
E. coli JMI 10768; Escherichia coli, JMI10768, substance alone
  MIC: > 16 µg/mL
K.pneumo JMI 4109 [6]; [9]
  MIC Aztreonam + inhibitor: ≤0.06 µg/mL
K.pneumo JMI 4109 [6]; [10]
  MIC Ceftazidime + inhibitor: ≤0.25 µg/mL
K.pneumo JMI 4109 [6]; [11]
  MIC Meropenem + inhibitor: ≤0.03 µg/mL
P. aerug JMI 2686; [9]
  MIC Aztreonam + inhibitor: >4 µg/mL
P. aerug JMI 2686; [10]
  MIC Ceftazidime + inhibitor: >16 µg/mL
P. aerug JMI 2686; [11]
  MIC Meropenem + inhibitor: >2 µg/mL
P. aerug JMI 149; [9]
  MIC Aztreonam + inhibitor: >4 µg/mL
P. aerug JMI 149; [10]
  MIC Ceftazidime + inhibitor: 16 µg/mL
P. aerug JMI 149; [11]
  MIC Meropenem + inhibitor: 0.5 µg/mL
P. aerug JMI 149; substance alone, read-out: MIC
  MIC: 16 µg/mL
K. pneumo JMI 2673 [7]
  MIC: > 16 µg/mL
K.pneumo JMI 4109 [8]
  MIC: 4 µg/mL
E. coli JMI 4080; E. coli JMI 4080 (Tem-10), Aztreonam + inhibitor at 4 µg/mL
  MIC Aztreonam + inhibitor: ≤0.06 µg/mL
E. coli JMI 4080; E. coli JMI 4080 (Tem-10), Ceftazidime + inhibitor at 4 µg/mL
  MIC Ceftazidime + inhibitor: 0.25 µg/mL
E. coli JMI 4080; E. coli JMI 4080 (Tem-10), Meropenem + inhibitor at 4 µg/mL
  MIC Meropenem + inhibitor: ≤0.03 µg/mL
E. coli JMI 4080; Escherichia coli, JMI4080, E. coli JMI 4080 (Tem-10), substance alone
  MIC: 16 µg/mL
E.coli JMI 4103; [9]
  MIC Aztreonam + inhibitor: ≤0.06 µg/mL
E.coli JMI 4103; [10]
  MIC Ceftazidime + inhibitor: 0.5 µg/mL
E.coli JMI 4103; [11]
  MIC Meropenem + inhibitor: 0.06 µg/mL
E.coli JMI 4103; Escherichia coli, JMI4103, substance alone
  MIC: 16 µg/mL
